Data taken from the NIST ThermoML archive (doi:10.1021/je700350b).
± gives the expanded uncertainty stated by the source.

Test: xn = mol fraction of the nth substance listed
Conditions: for surface tension liquid-gas: Ring tensiometer; for binary diffusion coefficient: 101 kPa, Taylor dispersion method; for binary diffusion coefficient / viscosity: Liquid; for viscosity: 101.33 kPa

In the case of `CCN(CC)CCO` [(diethylamino)ethanol] + O, the surface tension liquid-gas (283.15 K, x1 = 0.00104) is reported as 62.91 ± 2 mN/m, the surface tension liquid-gas (283.15 K, x1 = 0.00111) is reported as 62.83 ± 2 mN/m and the surface tension liquid-gas (283.15 K, x1 = 0.0013) is reported as 62.32 ± 2 mN/m. It also gave a surface tension liquid-gas (283.15 K, x1 = 0.00336) of 55.32 ± 1.8 mN/m, a surface tension liquid-gas (283.15 K, x1 = 0.00503) of 54.03 ± 1.7 mN/m and a surface tension liquid-gas (283.15 K, x1 = 0.00679) of 50.98 ± 1.6 mN/m. For the same compound, the surface tension liquid-gas (283.15 K, x1 = 0.02372) was 43.65 ± 1.4 mN/m, the surface tension liquid-gas (283.15 K, x1 = 0.03998) was 39.05 ± 1.2 mN/m and the surface tension liquid-gas (283.15 K, x1 = 0.06011) was 37.17 ± 1.2 mN/m. It also gave a surface tension liquid-gas (283.15 K, x1 = 0.07276) of 36.26 ± 1.1 mN/m, a surface tension liquid-gas (283.15 K, x1 = 0.1253) of 34.78 ± 1.1 mN/m and a surface tension liquid-gas (283.15 K, x1 = 0.1749) of 33.38 ± 1.1 mN/m. The surface tension liquid-gas (283.15 K, x1 = 0.2503) was 32.74 ± 1 mN/m, the surface tension liquid-gas (283.15 K, x1 = 0.3515) was 31.85 ± 1 mN/m and the surface tension liquid-gas (283.15 K, x1 = 0.4018) was 31.32 ± 0.98 mN/m. The surface tension liquid-gas (283.15 K, x1 = 0.5038) was 31.02 ± 0.97 mN/m, the surface tension liquid-gas (283.15 K, x1 = 0.608) was 30.63 ± 0.96 mN/m and the surface tension liquid-gas (283.15 K, x1 = 0.712) was 30.36 ± 0.95 mN/m. For the same compound, the surface tension liquid-gas (283.15 K, x1 = 0.7503) was 30.08 ± 0.94 mN/m, the surface tension liquid-gas (283.15 K, x1 = 0.8542) was 29.69 ± 0.93 mN/m and the surface tension liquid-gas (283.15 K, x1 = 1) was 28.79 ± 0.9 mN/m. The surface tension liquid-gas (288.15 K, x1 = 0.00104) was 62.06 ± 1.9 mN/m, the surface tension liquid-gas (288.15 K, x1 = 0.00111) was 61.98 ± 1.9 mN/m and the surface tension liquid-gas (288.15 K, x1 = 0.0013) was 61.47 ± 1.9 mN/m. It also gave a surface tension liquid-gas (288.15 K, x1 = 0.00336) of 54.27 ± 1.7 mN/m, a surface tension liquid-gas (288.15 K, x1 = 0.00503) of 53.11 ± 1.6 mN/m and a surface tension liquid-gas (288.15 K, x1 = 0.00679) of 49.93 ± 1.6 mN/m. The surface tension liquid-gas (288.15 K, x1 = 0.02372) was 42.61 ± 1.3 mN/m, the surface tension liquid-gas (288.15 K, x1 = 0.03998) was 38.43 ± 1.2 mN/m and the surface tension liquid-gas (288.15 K, x1 = 0.06011) was 36.56 ± 1.1 mN/m. It also gave a surface tension liquid-gas (288.15 K, x1 = 0.07276) of 35.84 ± 1.1 mN/m, a surface tension liquid-gas (288.15 K, x1 = 0.1253) of 34.38 ± 1.1 mN/m and a surface tension liquid-gas (288.15 K, x1 = 0.1749) of 32.58 ± 1 mN/m. The surface tension liquid-gas (288.15 K, x1 = 0.2503) was 32.22 ± 1 mN/m, the surface tension liquid-gas (288.15 K, x1 = 0.3515) was 31.24 ± 0.98 mN/m and the surface tension liquid-gas (288.15 K, x1 = 0.4018) was 30.72 ± 0.96 mN/m. It also gave a surface tension liquid-gas (288.15 K, x1 = 0.5038) of 30.62 ± 0.96 mN/m, a surface tension liquid-gas (288.15 K, x1 = 0.608) of 30.23 ± 0.95 mN/m and a surface tension liquid-gas (288.15 K, x1 = 0.712) of 29.96 ± 0.94 mN/m. The surface tension liquid-gas (288.15 K, x1 = 0.7503) was 29.69 ± 0.93 mN/m, the surface tension liquid-gas (288.15 K, x1 = 0.8542) was 29.3 ± 0.92 mN/m and the surface tension liquid-gas (288.15 K, x1 = 1) was 28.39 ± 0.89 mN/m. For the same compound, the surface tension liquid-gas (293.15 K, x1 = 0.00104) was 61.43 ± 1.9 mN/m, the surface tension liquid-gas (293.15 K, x1 = 0.00111) was 61.34 ± 1.9 mN/m and the surface tension liquid-gas (293.15 K, x1 = 0.0013) was 60.62 ± 1.9 mN/m. For the same compound, the surface tension liquid-gas (293.15 K, x1 = 0.00336) was 53.43 ± 1.6 mN/m, the surface tension liquid-gas (293.15 K, x1 = 0.00503) was 52.35 ± 1.6 mN/m and the surface tension liquid-gas (293.15 K, x1 = 0.00679) was 48.58 ± 1.5 mN/m. The surface tension liquid-gas (293.15 K, x1 = 0.02372) was 41.89 ± 1.3 mN/m, the surface tension liquid-gas (293.15 K, x1 = 0.03998) was 37.6 ± 1.2 mN/m and the surface tension liquid-gas (293.15 K, x1 = 0.06011) was 36 ± 1.1 mN/m. It also gave a surface tension liquid-gas (293.15 K, x1 = 0.07276) of 35.06 ± 1.1 mN/m, a surface tension liquid-gas (293.15 K, x1 = 0.1253) of 33.88 ± 1.1 mN/m and a surface tension liquid-gas (293.15 K, x1 = 0.1749) of 32.18 ± 1 mN/m. It also gave a surface tension liquid-gas (293.15 K, x1 = 0.2503) of 31.82 ± 0.99 mN/m, a surface tension liquid-gas (293.15 K, x1 = 0.3515) of 30.73 ± 0.96 mN/m and a surface tension liquid-gas (293.15 K, x1 = 0.4018) of 30.23 ± 0.95 mN/m. The surface tension liquid-gas (293.15 K, x1 = 0.5038) was 30.22 ± 0.95 mN/m, the surface tension liquid-gas (293.15 K, x1 = 0.608) was 29.73 ± 0.93 mN/m and the surface tension liquid-gas (293.15 K, x1 = 0.712) was 29.66 ± 0.93 mN/m. The surface tension liquid-gas (293.15 K, x1 = 0.7503) was 29.29 ± 0.92 mN/m, the surface tension liquid-gas (293.15 K, x1 = 0.8542) was 28.8 ± 0.9 mN/m and the surface tension liquid-gas (293.15 K, x1 = 1) was 27.99 ± 0.88 mN/m. The surface tension liquid-gas (298.15 K, x1 = 0.00104) was 60.8 ± 1.9 mN/m, the surface tension liquid-gas (298.15 K, x1 = 0.00111) was 60.7 ± 1.9 mN/m and the surface tension liquid-gas (298.15 K, x1 = 0.0013) was 59.88 ± 1.9 mN/m. It also gave a surface tension liquid-gas (298.15 K, x1 = 0.00336) of 52.59 ± 1.6 mN/m, a surface tension liquid-gas (298.15 K, x1 = 0.00503) of 51.41 ± 1.6 mN/m and a surface tension liquid-gas (298.15 K, x1 = 0.00679) of 47.43 ± 1.5 mN/m. The surface tension liquid-gas (298.15 K, x1 = 0.02372) was 40.85 ± 1.3 mN/m, the surface tension liquid-gas (298.15 K, x1 = 0.03998) was 36.88 ± 1.1 mN/m and the surface tension liquid-gas (298.15 K, x1 = 0.06011) was 35.23 ± 1.1 mN/m. It also gave a surface tension liquid-gas (298.15 K, x1 = 0.07276) of 34.59 ± 1.1 mN/m, a surface tension liquid-gas (298.15 K, x1 = 0.1253) of 33.18 ± 1 mN/m and a surface tension liquid-gas (298.15 K, x1 = 0.1749) of 31.58 ± 0.99 mN/m. The surface tension liquid-gas (298.15 K, x1 = 0.2503) was 31.21 ± 0.98 mN/m, the surface tension liquid-gas (298.15 K, x1 = 0.3515) was 30.22 ± 0.95 mN/m and the surface tension liquid-gas (298.15 K, x1 = 0.4018) was 29.73 ± 0.93 mN/m. It also gave a surface tension liquid-gas (298.15 K, x1 = 0.5038) of 29.72 ± 0.93 mN/m, a surface tension liquid-gas (298.15 K, x1 = 0.608) of 29.23 ± 0.92 mN/m and a surface tension liquid-gas (298.15 K, x1 = 0.712) of 29.15 ± 0.91 mN/m. For the same compound, the surface tension liquid-gas (298.15 K, x1 = 0.7503) was 28.8 ± 0.9 mN/m, the surface tension liquid-gas (298.15 K, x1 = 0.8542) was 28.41 ± 0.89 mN/m and the surface tension liquid-gas (298.15 K, x1 = 1) was 27.6 ± 0.87 mN/m. For the same compound, the binary diffusion coefficient (298.15 K, x1 = 0.00427) was 6.17e-10 m2/s, the binary diffusion coefficient (298.15 K, x1 = 0.01425) was 4.95e-10 m2/s and the binary diffusion coefficient (298.15 K, x1 = 0.03523) was 2.95e-10 m2/s. The binary diffusion coefficient (298.15 K, x1 = 0.05087) was 2.23e-10 m2/s, the binary diffusion coefficient (298.15 K, x1 = 0.05118) was 2.22e-10 m2/s and the binary diffusion coefficient (298.15 K, x1 = 0.07013) was 1.58e-10 m2/s. It also gave a binary diffusion coefficient (298.15 K, x1 = 0.09711) of 1.32e-10 m2/s, a binary diffusion coefficient (298.15 K, x1 = 0.1004) of 1.26e-10 m2/s and a binary diffusion coefficient (298.15 K, x1 = 0.1467) of 1.07e-10 m2/s. The viscosity (298.15 K, x1 = 0.01005) was 1.201 ± 0.019 mPa·s, the viscosity (298.15 K, x1 = 0.02016) was 1.536 ± 0.024 mPa·s and the viscosity (298.15 K, x1 = 0.03) was 1.949 ± 0.03 mPa·s. For the same compound, the viscosity (298.15 K, x1 = 0.04005) was 2.421 ± 0.037 mPa·s, the viscosity (298.15 K, x1 = 0.05946) was 3.473 ± 0.054 mPa·s and the viscosity (298.15 K, x1 = 0.06152) was 3.51 ± 0.054 mPa·s. It also gave a viscosity (298.15 K, x1 = 0.07026) of 4.128 ± 0.064 mPa·s, a viscosity (298.15 K, x1 = 0.08762) of 5.181 ± 0.081 mPa·s and a viscosity (298.15 K, x1 = 0.09008) of 5.347 ± 0.084 mPa·s. It also gave a viscosity (298.15 K, x1 = 0.11) of 6.615 ± 0.1 mPa·s, a viscosity (298.15 K, x1 = 0.12) of 7.243 ± 0.11 mPa·s and a viscosity (298.15 K, x1 = 0.1301) of 7.863 ± 0.12 mPa·s. It also gave a viscosity (298.15 K, x1 = 0.1401) of 8.511 ± 0.14 mPa·s.
